Reference: patent publication US11912970B2, “Universal microfluidic culture system to analyze and control cell dynamics” (The University of Chicago, priority 2017, dated 2024)

Tests used:
[1] = system: NSCs; experiment: NSCs proliferation (cell number) under combinatorial ligand inputs (permutation test and decision tree analysis); assay type: cell-based, mouse; conditions: ligands in isolation or as a pair (synergy)
Description: Murine hematopoietic stem cells (HSC) are isolated by FACSAria III flow cytometer (BD Biosciences) as Lin−/c-Kit+/Sca-1+/CD48−/CD150+/CD34− (lineage, Lin: CD3e/CD11b/CD19/CD41/B220/Gr-1/Ter-119), which are approximately 50% pure HSCs. Macrophage colony-stimulating factor (M-CSF), a myeloid cytokine released during infection and inflammation, is employed to induce HSCs differentiation. Human CD34+ cells were isolated from mononuclear cells using EasySepTM human CD34 positive selection kit (Stemcell Technologies, Vancouver, BC, Canada). CD34+CD38−CD45RA−CD90+CD49f+ HSCs were sorted using a FACSAria III flow cytometer (BD Biosciences). […]
For image acquisition, a Nikon Ti-ECLIPSE microscope with an automated translation stage and a digital CMOS camera (ORCA-Flash 4.0, Hamamatsu, Japan) was used. […] Bright field and fluorescence images were acquired and analyzed using a customized MATLAB program (Mathworks, […]). The algorithm extracts single cell traces including position, nuclear and cytoplasm fluorescence level. For example, the 3T3 cell nuclear area in each image is identified via the fluorescent nuclear marker GFP, and then the mean value of the nuclear intensity of the p65-DsRed marker is measured, and plotted as a function of time. […]

[2] = system: NSCs; experiment: NSCs proliferation (cell number) under sequential ligand inputs (permutation test and decision tree analysis); assay type: cell-based, mouse; conditions: sequential input
Description: (§1) Murine hematopoietic stem cells (HSC) are isolated by FACSAria III flow cytometer (BD Biosciences) as Lin−/c-Kit+/Sca-1+/CD48−/CD150+/CD34− (lineage, Lin: CD3e/CD11b/CD19/CD41/B220/Gr-1/Ter-119), which are approximately 50% pure HSCs. Macrophage colony-stimulating factor (M-CSF), a myeloid cytokine released during infection and inflammation, is employed to induce HSCs differentiation. Human CD34+ cells were isolated from mononuclear cells using EasySepTM human CD34 positive selection kit (Stemcell Technologies, Vancouver, BC, Canada). CD34+CD38−CD45RA−CD90+CD49f+ HSCs were sorted using a FACSAria III flow cytometer (BD Biosciences). Pro- and anti-inflammatory cytokines including TNF, IFN[…], IL-6, IP10 and MCP-1 are introduced into the cellular environment as single ligand and in combination. Embryonic NSCs with Hes-GFP and Dcx-RFP reporters were isolated at embryonic day 13.5 from a transgenic mice carrying Hes-GFP and Dcx-RFP using standard protocol (Woo, et al., 2009; Basak, et al., 2007). The resulting primary cells were verified to carry both Hes5-GFP and Dcx-RFP after isolation and allowed to grow for few passages before use in the experiments (Giachino, et al., 2009). NSCs were cultured as neurospheres in culture media (DMEM/F12+Glutamax (Gibco No:31331-028); 10 U/ml penicillin; 10 ug/ml Streptomycin; B27 supplement (1:50); FGF growth factor 0.02 ug/ml). As NSCs are sensitive to environmental variations, cell handling protocol before loading into the chip is examined systematically (including dissociation, FACS sorting, etc.). To obtain the optimal results, NSCs spheres are collected and loaded into the chip 24 hours after fresh dissociation wherein each sphere contains ˜7 to 10 cells. […]
(§2) For image acquisition, a Nikon Ti-ECLIPSE microscope with an automated translation stage and a digital CMOS camera (ORCA-Flash 4.0, Hamamatsu, Japan) was used. […] Bright field and fluorescence images were acquired and analyzed using a customized MATLAB program (Mathworks, […]). The algorithm extracts single cell traces including position, nuclear and cytoplasm fluorescence level. For example, the 3T3 cell nuclear area in each image is identified via the fluorescent nuclear marker GFP, and then the mean value of the nuclear intensity of the p65-DsRed marker is measured, and plotted as a function of time.
(§3) To investigate the role of combinatorial or temporal ordering of signals in NSC differentiation, the inventors cultured NSCs under combinatorial and sequential applications of the six regulatory ligands (FIG. 8A, FIGS. 22 and 23). […] The inventors measured the ratio of the ligand-treated cells to untreated control for cell number and Hes5-GFP expression intensity. […] Multiple experiments were repeated resulting in nearly 3000 dynamic cultures analyzed. […]

[3] = system: Hes5-GFP expression in NSCs; experiment: NSCs Hes5-GFP expression under sequential ligand inputs (permutation test and decision tree analysis); assay type: cell-based, mouse; conditions: for Hes5 expression relative to control: sequential input
Description: as §1, §2, §3

[4] = system: NSCs; experiment: NSCs cell fate (self-renewal or differentiation) from Hes5 level and cell numbers under sequential stimulation; assay type: cell-based, mouse; conditions: for cell fate outcome: sequential input
Description: (§4) Murine hematopoietic stem cells (HSC) are isolated by FACSAria III flow cytometer (BD Biosciences) as Lin−/c-Kit+/Sca-1+/CD48−/CD150+/CD34− (lineage, Lin: CD3e/CD11b/CD19/CD41/B220/Gr-1/Ter-119), which are approximately 50% pure HSCs. Macrophage colony-stimulating factor (M-CSF), a myeloid cytokine released during infection and inflammation, is employed to induce HSCs differentiation. Human CD34+ cells were isolated from mononuclear cells using EasySepTM human CD34 positive selection kit (Stemcell Technologies, Vancouver, BC, Canada). CD34+CD38−CD45RA−CD90+CD49f+ HSCs were sorted using a FACSAria III flow cytometer (BD Biosciences). Pro- and anti-inflammatory cytokines including TNF, IFN[…], IL-6, IP10 and MCP-1 are introduced into the cellular environment as single ligand and in combination. Embryonic NSCs with Hes-GFP and Dcx-RFP reporters were isolated at embryonic day 13.5 from a transgenic mice carrying Hes-GFP and Dcx-RFP using standard protocol (Woo, et al., 2009; Basak, et al., 2007). The resulting primary cells were verified to carry both Hes5-GFP and Dcx-RFP after isolation and allowed to grow for few passages before use in the experiments (Giachino, et al., 2009). NSCs were cultured as neurospheres in culture media (DMEM/F12+Glutamax (Gibco No:31331-028); 10 U/ml penicillin; 10 ug/ml Streptomycin; B27 supplement (1:50); FGF growth factor 0.02 ug/ml). As NSCs are sensitive to environmental variations, cell handling protocol before loading into the chip is examined systematically (including dissociation, FACS sorting, etc.). To obtain the optimal results, NSCs spheres are collected and loaded into the chip 24 hours after fresh dissociation wherein each sphere contains ˜7 to 10 cells. To avoid potential artifacts due to prolonged in vitro culture, only NSCs within 10 passages were used in the study.
To investigate the role of combinatorial or temporal ordering of signals in NSC differentiation, the inventors cultured NSCs under combinatorial and sequential applications of the six regulatory ligands (FIG. 8A, FIGS. 22 and 23). For each independent NSC culture on the chip, the inventors introduced either one ligand each day (sequential inputs), or a combination of the selected ligands over a six-day period (combinatorial inputs). The inventors measured the ratio of the ligand-treated cells to untreated control for cell number and Hes5-GFP expression intensity. Each chip experiment consisted of 63 combinatorial and 720 sequential stimulation experiments, with duplicates (FIG. 8B). Multiple experiments were repeated resulting in nearly 3000 dynamic cultures analyzed. The inventors subjected all experimental outputs of NSC cell numbers and Hes5 expression to regression and classification tree analyses. […]

[5] = system: human HSCs; assay type: cell-based; conditions: TNF with other participating cytokines
Protocol: FIG. 3C depicts a chart of long-term culture and TNF stimulation of human hematopoietic stem cells (HSCs). Cells were cultured on the microfluidic device in the absence of TNF (control) and 1 ng/ml TNF, for up to 5 days. […] N indicates cell numbers per chamber. […] D represents dynamic cytokine inputs, daily variation between 0.1 and 10 ng/ml.
Besides being a signaling protein involved in systemic inflammation, TNF-alpha is also widely employed to mimic the post-transplantation signaling environment (Mohabbat, et al., 2012). To mimic clinical hematopoietic stem cell transplantation (HSCT), different doses of TNF-alpha are directed to designated culture chambers housing HSCs by programmed medium exchange procedures. […] In both cases, cells proliferate at a similar, if not higher, rate than those in bulk experiments in traditional culture dishes.
Murine hematopoietic stem cells (HSC) are isolated by FACSAria III flow cytometer (BD Biosciences) as Lin−/c-Kit+/Sca-1+/CD48−/CD150+/CD34− (lineage, Lin: CD3e/CD11b/CD19/CD41/B220/Gr-1/Ter-119), which are approximately 50% pure HSCs. Macrophage colony-stimulating factor (M-CSF), a myeloid cytokine released during infection and inflammation, is employed to induce HSCs differentiation. Human CD34+ cells were isolated from mononuclear cells using EasySepTM human CD34 positive selection kit (Stemcell Technologies, Vancouver, BC, Canada). […]

[6] = system: Hes5-GFP expression in NSCs; experiment: NSCs Hes5 level with sole presence of one ligand, on-chip culture; assay type: cell-based, mouse
Protocol: FIG. 6B depicts a histogram of Hes5-GFP expression in NSCs before (red) and after (black) one week culture with 100 ng/ml PDGF. High levels of Hes5 in NSCs indicate maintenance of stem cell state, while reduced Hes5 indicates progress towards differentiation.
Murine hematopoietic stem cells (HSC) are isolated by FACSAria III flow cytometer (BD Biosciences) as Lin−/c-Kit+/Sca-1+/CD48−/CD150+/CD34− (lineage, Lin: CD3e/CD11b/CD19/CD41/B220/Gr-1/Ter-119), which are approximately 50% pure HSCs. Macrophage colony-stimulating factor (M-CSF), a myeloid cytokine released during infection and inflammation, is employed to induce HSCs differentiation. […]
as §2

[7] = system: Hes5-GFP expression in NSCs; experiment: NSCs Hes5 expression under combinatorial ligand inputs (permutation test and decision tree analysis); assay type: cell-based, mouse; conditions: combinatorial input; for Hes5 expression, mean ratio relative to control: decision tree
Description: as §4
For image acquisition, a Nikon Ti-ECLIPSE microscope with an automated translation stage and a digital CMOS camera (ORCA-Flash 4.0, Hamamatsu, Japan) was used. The stage and image acquisition was controlled via the NIS Elements software. Bright field and fluorescence images were acquired and analyzed using a customized MATLAB program (Mathworks, […]). The algorithm extracts single cell traces including position, nuclear and cytoplasm fluorescence level. For example, the 3T3 cell nuclear area in each image is identified via the fluorescent nuclear marker GFP, and then the mean value of the nuclear intensity of the p65-DsRed marker is measured, and plotted as a function of time.
To investigate the role of combinatorial or temporal ordering of signals in NSC differentiation, the inventors cultured NSCs under combinatorial and sequential applications of the six regulatory ligands (FIG. 8A, FIGS. 22 and 23). For each independent NSC culture on the chip, the inventors introduced either one ligand each day (sequential inputs), or a combination of the selected ligands over a six-day period (combinatorial inputs). The inventors measured the ratio of the ligand-treated cells to untreated control for cell number and Hes5-GFP expression intensity. Each chip experiment consisted of 63 combinatorial and 720 sequential stimulation experiments, with duplicates (FIG. 8B). Multiple experiments were repeated resulting in nearly 3000 dynamic cultures analyzed. The inventors subjected all experimental outputs of NSC cell numbers and Hes5 expression to regression and classification tree analyses. NSCs' cellular states were categorized into two groups: differentiation (with decreased Hes5 level and cell numbers) and self-renewal (with increased Hes5 level and cell numbers) (FIG. 8D).
In this work, the inventors use decision tree analysis to generate descriptive and predictive models which map measurements about cell phenotypic features (i.e., cell count and Hes5-GFP expression) to experimental conditions (i.e., sequential and combinatorial application of six regulatory ligands) (Breiman, 1984). […]

[8] = system: NF-κB in 3T3 cells; experiment: TNF-alpha induced NF-κB activation in 3T3 fibroblasts on chip; assay type: cell-based, mouse
Description: The inventors took advantage of the long-term stable culture capability of the device and extended TNF-alpha induced NF-κB activation study in 3T3 fibroblasts for up to a week. The response of 3T3 cells to TNF-alpha stimulation is characterized by the nuclear translocation of transcription factor NF-κB, and visualized through automated fluorescence imaging (Kellogg, et al., 2015). Both single cells and a population of cells were successfully maintained in the present culture chambers, and were stimulated with series of TNF-alpha concentrations (0.001 to 100 ng/ml), which were simultaneously generated on-chip. […]
as §2

## EGF: signaling ligand whose receptor is highly expressed during mouse forebrain development (NSYPGCPSSYDGYCLNGGVCMHIESLDSYTCNCVIGYSGDRCQTRDLRWWELR; not fully specified; Epidermal growth factor; UniProt P01132 977-1029, looked up)
[1]
  increased cell number: 60%
[2]; CXCL added at day 1, ligand added at day 2
  cell number raised by a factor: 1.19 factor
[2]; Jagged added at day 1, ligand added at day 2
  cell number raised by a factor: 1.38 factor
[2]; ligand added at day 1 alone
  effect on cell number: does not introduce significant increase of cell number
[3]; ligand added at day 1
  Hes5 expression relative to control: 86.8 % of the control
[4]; six-ligand sequence, ligand application moved to day 6
  Hes5 expression: significant reduction in Hes5 expression
[4]; six-ligand sequence, ligand delivered on day 2
  Hes5 expression and cell numbers: high Hes5 expression levels and unchanged cell numbers

## IFNγ: cytokine combined with TNF on human HSCs
[5]
  effect on TNF induced cell death: neutralize TNF induced cell death

## PDGF
[6]
  increase of Hes5 level from its initial value: around 25%
[2]; ligand added at day 1
  cell number relative to control: 85.4 % of the control
[3]; decision tree, ligand present on the 1st day of culture
  Hes5 expression outcome: high Hes5 expression levels
[3]; DLL added at day 1, ligand applied at day 2
  Hes5 expression relative to control: 89.2 % of the control level
[3]; ligand added at day 1
  Hes5 expression relative to control: 126.6 % of the control
[4]; DLL in day-1, ligand moved to day-2
  cell fate outcome: promoting differentiation
[4]; ligand at day 1
  cell fate outcome: NSCs self-renewal
[7]; PDGF present, without DLL
  Hes5 expression, mean ratio relative to control: 1.22
[7]; PDGF present, without DLL, CXCL
  Hes5 expression, mean ratio relative to control: 1.37
[7]; PDGF present, without DLL, CXCL or EGF
  Hes5 expression, mean ratio relative to control: 1.56
[7]; ligand present
  Hes5 expression, mean ratio relative to control: ≥ 1.11
[7]; permutation test
  increase of Hes5 expression by a factor: 1.06 factor
[7]; permutation test, combined with DLL
  Hes5 expression relative to control: 99.3 % of the control level

## TNF-alpha
[8]; 0.1 and 0.2 ng/ml, first pulse, single cell level
  single cell response to pulse stimulation (NF-κB): all cells respond to the first pulse stimulation
[8]; prolonged incubation and stimulation for one week
  cytoplasm NF-κB level: proportional to TNF-alpha concentration
